Measured values as given in US20200375987A1, “METALLO-BETA-LACTAMASE INHIBITORS AND METHODS OF USE THEREOF” (priority 2018, published 2020).

Tests used:
NDM-1 = NDM-1 (Klebsiella pneumoniae, UniProt C7C422); assay: Enzyme activity: determination of IC50, fluorescence assay with CCF2-FA substrate (NDM-1); format: biochemical; conditions: 1 pM enzyme, 1.25 μM CCF2-FA, 2 hours at 25° C.; read-out: NDM1 IC50
Method in brief: (§1)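 Each enzyme (final 1 pM NDM-1, 2 pM IMP-1, 30 pM VIM-1) was incubated with test inhibitor (20 μM to 0.00063 μM) and 1.25 μM CCF2-FA for 2 hours at 25° C in zinc-supplemented phosphate buffer, pH 7. Fluorescence at 460 nm was then read and IC50 fitted with four parameters.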

IMP-1 = IMP-1 (Serratia marcescens, UniProt P52699); assay: Enzyme activity: determination of IC50, fluorescence assay with CCF2-FA substrate (IMP-1); format: biochemical; conditions: 2 pM enzyme, 1.25 μM CCF2-FA, 2 hours at 25° C.; read-out: IMP1 IC50
IMP-1, sequence (P52699 19-246, looked up, species assumed): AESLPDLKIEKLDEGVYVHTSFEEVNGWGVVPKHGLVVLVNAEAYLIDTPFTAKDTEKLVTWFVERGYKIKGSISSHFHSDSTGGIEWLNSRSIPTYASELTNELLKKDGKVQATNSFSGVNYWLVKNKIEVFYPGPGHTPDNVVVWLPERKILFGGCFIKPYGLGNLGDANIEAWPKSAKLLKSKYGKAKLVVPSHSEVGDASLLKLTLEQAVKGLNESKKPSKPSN
Method in brief: as §1

VIM-1 = VIM-1 (Pseudomonas aeruginosa, UniProt A0A0F7KYQ8); assay: Enzyme activity: determination of IC50, fluorescence assay with CCF2-FA substrate (VIM-1); format: biochemical; conditions: 30 pM enzyme, 1.25 μM CCF2-FA, 2 hours at 25° C.; read-out: VIM1 IC50
Method in brief: as §1

VIM-2 = VIM-2 (Escherichia coli, UniProt Q5U7L7); assay: Enzyme activity: determination of IC50 (VIM-2); format: biochemical; conditions: read-out: VIM2 IC50
[1] = system: Escherichia coli expressing NDM-1 (CLB30016); assay: Antibiotic potentiation activity: synergistic concentration (MITC95) with imipenem; format: cell-based; conditions: imipenem 1 μg/mL; lowest concentration inhibiting 95% of growth; 35° C., 22-24 hours
Method in brief: (§2)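 Clinical MBL-expressing strains diluted into 1.1× CAMHB were incubated with compound plus imipenem at 1 μg/mL for 22–24 h at 35 °C, then absorbance was read. MITC95 is the lowest compound concentration giving 95% growth inhibition in the presence of imipenem.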

[2] = system: Klebsiella pneumoniae expressing VIM-1 (IHMA599644); assay: as above; format: cell-based; conditions: imipenem 1 μg/mL; lowest concentration inhibiting 95% of growth; 35° C., 22-24 hours
Method in brief: as §2

[3] = system: Serratia marcescens expressing IMP-1 (CL5741); assay: as above; format: cell-based; conditions: imipenem 1 μg/mL; lowest concentration inhibiting 95% of growth; 35° C., 22-24 hours
Method in brief: as §2

[4] = system: P. aeruginosa MB9798 (efflux WT, IMP-1); assay: Efflux: concentration of MBL inhibitor restoring susceptibility to imipenem (MITC95), efflux+ strain; format: cell-based, Pseudomonas aeruginosa; conditions: imipenem at 2 μg/mL in the presence of a class A, C, D serine β-lactamase inhibitor closely related to relebactam
Method in brief: (§3)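 Isogenic P. aeruginosa PAO1 strains, efflux+ and efflux−, transformed with IMP-1 plasmid, were tested by microbroth MIC with fixed imipenem, usually at CLSI breakpoint, plus fixed class A/C β-lactamase inhibitor against AmpC. MBL inhibitor was serially titrated; the concentration restoring susceptibility was recorded.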

[5] = system: P. aeruginosa MB9799 (efflux mutant, IMP-1); assay: Efflux: concentration of MBL inhibitor restoring susceptibility to imipenem (MITC95), efflux− strain; format: cell-based, Pseudomonas aeruginosa; conditions: imipenem at 2 μg/mL in the presence of a class A, C, D serine β-lactamase inhibitor closely related to relebactam
Method in brief: as §3

NDM-1, sequence (C7C422 29-270, looked up, species assumed): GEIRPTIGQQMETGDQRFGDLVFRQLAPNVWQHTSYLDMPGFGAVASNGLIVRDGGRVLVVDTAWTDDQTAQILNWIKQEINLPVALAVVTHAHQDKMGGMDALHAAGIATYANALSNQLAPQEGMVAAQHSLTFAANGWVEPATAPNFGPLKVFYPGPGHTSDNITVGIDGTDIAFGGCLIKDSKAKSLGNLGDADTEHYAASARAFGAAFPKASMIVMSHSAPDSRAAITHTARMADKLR

Row | SMILES | IC50 (NDM-1) [nM] | IC50 (IMP-1) [nM] | IC50 (VIM-1) [nM] | IC50 (VIM-2) [nM] | CLB30016 E.coli MITC95 NDM [1] [µM] | IHMA599644 K.pneumoniae MITC95 uM VIM [2] [µM] | CL5741 S.marcescens MITC95 uM IMP [3] [µM] | MB9798 MITC95 P. aeruginosa Efflux WT [4] [µM] | MB9799 MITC95 P. aeruginosa Efflux Mutant [5] [µM]
1 | NCCNS(=O)(=O)c1ccc(N2CCCn3ccnc32)c(-c2nn[nH]n2)c1S(N)(=O)=O [Example 12, N1-(2-aminoethyl)-4-(6,7-dihydroimidazo[1,2-a]pyrimidin-8(5H)-yl)-3-(2H-tetrazol-5-yl)benzene-1,2-disulfonamide] | 1.58 | 4.69 | 0.6 | 2.17 | 0.05 | 0.39 | 0.20 | 0.78 | 0.20
2 | NC[C@@H](O)CNS(=O)(=O)c1ccc(N2CCC(CO)n3ccnc32)c(-c2nn[nH]n2)c1S(N)(=O)=O (stereo partly drawn) [Example 38, N1-((R)-3-amino-2-hydroxypropyl)-4-(5-(hydroxymethyl)-6,7-dihydroimidazo[1,2-a]pyrimidin-8(5H)-yl)-3-(2H-tetrazol-5-yl)benzene-1,2-disulfonamide] | 0.64 | 4.17 | 0.4 | 2.42 | 0.20 | 1.56 | 0.78 | 1.56 | 0.78
3 | NS(=O)(=O)c1c(S(=O)(=O)N[C@@H]2CCNC2)ccc(N2CCc3cccnc32)c1-c1nnn[nH]1 [Example 32, 4-(2,3-dihydro-1H-pyrrolo[2,3-b]pyridin-1-yl)-N1-[(3R)-pyrrolidin-3-yl]-3-(1H-tetrazol-5-yl)benzene-1,2-disulfonamide] | 0.21 | 1.14 | 0.17 | 0.39 | 1.56 | 3.13 | 1.56 | 3.13 | 1.56
4 | NC[C@@H](O)CNS(=O)(=O)c1ccc(N2CC[C@@H](CO)n3ccnc32)c(-c2nn[nH]n2)c1S(N)(=O)=O [Example 39, N1-((R)-3-amino-2-hydroxypropyl)-4-((S)-5-(hydroxymethyl)-6,7-dihydroimidazo[1,2-a]pyrimidin-8(5H)-yl)-3-(2H-tetrazol-5-yl)benzene-1,2-disulfonamide] | 0.89 | 6.52 | 1.62 | 14.3 | 0.29 | 1.56 | 0.78 | 2.34 | 1.17
5 | NC[C@@H](O)CNS(=O)(=O)c1ccc(N2CCCn3ccnc32)c(-c2nnn[nH]2)c1S(N)(=O)=O [Example 16, (R)-N1-(3-amino-2-hydroxypropyl)-4-(6,7-dihydroimidazo[1,2-a]pyrimidin-8(5H)-yl)-3-(1H-tetrazol-5-yl)benzene-1,2-disulfonamide] | 1.2 | 5.93 | 0.38 | 1.01 | 0.10 | 1.56 | 0.39 | 3.13 | 0.78
6 | NS(=O)(=O)c1c(S(=O)(=O)N[C@@H]2CCNC2)ccc(N2CCCc3ccc(CCO)nc32)c1-c1nnn[nH]1 [Example 35, 4-[7-(2-hydroxyethyl)-3,4-dihydro-1,8-naphthyridin-1(2H)-yl]-N1-[(3R)-pyrrolidin-3-yl]-3-(1H-tetrazol-5-yl)benzene-1,2-disulfonamide] | 4.34 | 4.68 | 5.78 | 5.59 | 0.78 | 6.25 | 1.56 | 50.00 | 0.78
7 | NS(=O)(=O)c1c(S(=O)(=O)N[C@@H]2CCNC2)ccc(N2CCc3nc(O)ccc3C2)c1-c1nnn[nH]1 [Example 25, 4-(2-hydroxy-7,8-dihydro-1,6-naphthyridin-6(5H)-yl)-N1-[(3R)-pyrrolidin-3-yl]-3-(1H-tetrazol-5-yl)benzene-1,2-disulfonamide] | 3.09 | 6.11 | 1.1 | 4.79 | 0.39 | 1.56 | 0.78 | 6.25 | 0.78
8 | NC[C@@H](O)CNS(=O)(=O)c1ccc(N2CCn3ccnc32)c(-c2nnn[nH]2)c1S(N)(=O)=O [Example 19, (R)—N1-(3-amino-2-hydroxypropyl)-4-(2,3-dihydro-1H-imidazo[1,2-a]imidazol-1-yl)-3-(1H-tetrazol-5-yl)benzene-1,2-disulfonamide] | 1.03 | 12.1 | 5.96 | 9.8 | 0.20 | 3.13 | 0.78 | 6.25 | 1.56
9 | NS(=O)(=O)c1c(S(=O)(=O)N[C@@H]2CCNC2)ccc(N2CCCn3nccc32)c1-c1nn[nH]n1 [Example 7, (R)-4-(6,7-dihydropyrazolo[1,5-a]pyrimidin-4(5H)-yl)-N^1-(pyrrolidin-3-yl)-3-(2H-tetrazol-5-yl)benzene-1,2-disulfonamide] | 0.14 | 2.81 | 0.13 | 0.66 | 6.25 | 6.25 | 3.13 | 3.13 | 1.56
10 | NS(=O)(=O)c1c(S(=O)(=O)N[C@@H]2CCNC2)ccc(N2CCc3[nH]nnc3C2)c1-c1nnn[nH]1 [Example 26, N1-[(3R)-pyrrolidin-3-yl]-4-(1,4,6,7-tetrahydro-5H-[1,2,3]triazolo[4,5-c]pyridin-5-yl)-3-(1H-tetrazol-5-yl)benzene-1,2-disulfonamide] | 2.14 | 5.97 | 1.75 | 5.08 | 0.78 | 3.13 | 1.56 | 6.25 | 0.78
11 | NS(=O)(=O)c1c(S(=O)(=O)N[C@@H]2CCNC2)ccc(N2Cc3cccnc3C2)c1-c1nnn[nH]1 [Example 22, 4-(5,7-dihydro-6H-pyrrolo[3,4-b]pyridin-6-yl)-N1-[(3R)-pyrrolidin-3-yl]-3-(1H-tetrazol-5-yl)benzene-1,2-disulfonamide] | 0.62 | 0.17 | 0.59 | 2.31 | 0.78 | 6.25 | 3.13 | 3.13 | 1.56
